# Measured values from patent US20260265304A1, “PEPTIDE INHIBITORS OF FOCAL ADHESION KINASE ACTIVITY AND USES THEREOF” (Arizona Board of Regents on Behalf of the University of …, priority 2019, published 2026).
# Where “and” joins values, the source holds several entries; their conditions need not be identical. Equal values may be shown once. Read-outs that look alike come from different tables or passages of the source. Positions of bridges follow the written chain, without caps; N, C: chain ends. Non-standard residues stand in square brackets, D forms with d. Residues, ends and D or L forms follow the SMILES beside them. *: point of attachment. Myristoyl = CCCCCCCCCCCCCC(=O)*; R8 = C=CCCCCCC[C@@](C)(N)C(=O)O; R5 = C=CCCC[C@@](C)(N)C(=O)O; S5 = C=CCCC[C@](C)(N)C(=O)O
# What was measured:
# [1] = biological target: T1, FAK FAT domain (biotinylated Avitag-FAT protein) (Homo sapiens, UniProt Q05397); assay: Surface plasmon resonance (SPR) binding to immobilised FAT protein; conditions: for Kd: FAT protein immobilised, peptide 200 μM-0.01 μM, 1:1 binding model; for binding and inhibitory properties (SPR/FP) in words, compared to 1907: SAR discussion of SPR and FP data
# T1 construct: biotinylated Avitag-FAT protein was diluted in running buffer
# T1 sequence (Q05397 914-1045 limits assumed): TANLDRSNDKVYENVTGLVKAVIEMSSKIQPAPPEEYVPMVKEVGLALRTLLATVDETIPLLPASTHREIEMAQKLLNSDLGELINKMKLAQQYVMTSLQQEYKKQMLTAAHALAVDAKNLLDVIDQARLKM
# Method: SPR binding studies were performed on a ForteBio Pioneer FE SPR system. In brief, a SADH Streptavidin in Dextran Hydrogel biosensor (ForteBio) was docked onto the flow cell and preconditioned with two injections of 10 mM NaOH, 1 M NaCl for 1 min at 50 μL/min. […] Empty channel 2 served as the reference control. After achieving a stable baseline, a concentration series (200 μM-0.01 μM) of peptide was prepared in final running buffer (100 mM Tris-HCl, 200 mM NaCl, 0.05% Tween-20, 5% DMSO) and injected using the OneStep gradient injection method at a flow rate of 75 μL/min. […] Raw SPR data were appropriately processed in Qdat software (ForteBio) by normalizing the baseline prior to injection, aligning the channels, subtraction of the reference channel, and blank subtraction. Kinetic data were fitted to a pseudo-first order 1:1 interaction binding model using to calculate KD. In addition, a steady-state model and Req data points were used to validate the binding affinity. Visual inspection of the SPR sensograms was performed to verify appropriate model fitting, lack of mass transport effects, return to baseline, and lack of irregular kinetics.
# [2] = biological target: T2, FAK FAT domain (paxillin-FAT binding) (Homo sapiens, UniProt Q05397); assay: Competition fluorescence polarization (FP) assay, inhibition of TAMRA-LD2 binding to FAT
# T2 construct: FP Buffer containing 20 μM FAT and 0.1 μM TAMRA-LD2
# T2 sequence (Q05397 914-1045 limits assumed): T1 sequence (Q05397 914-1045 limits assumed)
# Method: The FP assay buffer used was 20 mM Tris, 200 mM NaCl, 0.05% β-me, 0.1% Triton X-100, 5% glycerol, and 1× Halt protease inhibitor cocktail. […] Bodipy TMR FP optical module (2100-4100) was used as the mirror.
# Wells with no FAT were used as a baseline value which was subtracted from the raw values to produce ΔmP values. The plate was read at every hour for four hours to test for time differences in IC50. The titration data was processed through GraphPad Prism to produce a dose response curve and a calculated IC50 with standard error (SE). A four-parameter dose-response inhibition model was utilized and the bottom fit was constrained to the lower plateau of the curve. Ki was determined from the following calculation:
# P0 is the concentration of free protein and KD is calculated from the saturation curve. 150 is calculated by the following equation:
# where PT is the total protein concentration, LT is the total labeled-ligand concentration, P0 is the positive root of P0^2+(KD+LT)*P0−PT, PL0=P−P0, PL50=PL0/2, L0=LT-PL0, and L50=LT-PL50.
Compound,Kd ([1]; read-out: SPR KD),"binding and inhibitory properties (SPR/FP) in words, compared to 1907 [1]",Ki ([2]; read-out: FP Ki) [µM],Kd ([1]; SPR KD) [µM],Ki [2] [µM]
"CC(=O)N[C@@H](CC(N)=O)C(=O)N[C@@H](CC(C)C)C(=O)N[C@@H](CO)C(=O)N[C@@H](CCC(=O)O)C(=O)N[C@]1(C)CCCC=CCCC[C@@](C)(C(=O)N[C@@H](CC(C)C)C(=O)N[C@@H](CC(C)C)C(=O)N[C@@H](CCC(=O)O)C(=O)N[C@@H](CC(C)C)C(=O)N[C@@H](CC(N)=O)C(N)=O)NC(=O)[C@H](CCCNC(=N)N)NC(=O)[C@H](CC(=O)O)NC1=O [Peptide 2022, Ac-NLSER5DRS5LLELN-NH2] (Ac-NLSE[R5]DR[S5]LLELN-NH2; staple 5-8)",911 µM,did not show much activity compared to 1907,341,–,–
"CC(=O)N[C@@H](CO)C(=O)N[C@@H](CC(C)C)C(=O)NCC(=O)N[C@@H](CO)C(=O)N[C@@H](CC(N)=O)C(=O)N[C@@H](CC(C)C)C(=O)N[C@]1(C)CCCCCCC=CCCC[C@@](C)(C(=O)N[C@@H](CCC(=O)O)C(=O)N[C@@H](CC(C)C)C(=O)N[C@@H](CC(N)=O)C(=O)N[C@@H](C)C(=O)N[C@H](C(=O)N[C@@H](CCC(N)=O)C(=O)N[C@@H](Cc2c[nH]cn2)C(N)=O)C(C)C)NC(=O)[C@H](CC(C)C)NC(=O)[C@H](CC(C)C)NC(=O)[C@H](CCCNC(=N)N)NC(=O)[C@H](CC(=O)O)NC(=O)[C@H](CC(C)C)NC(=O)[C@H](CCC(=O)O)NC1=O [Peptide 1920, Ac-SLGSNLR8ELDRLLS5ELNAVQH-NH2] (Ac-SLGSNL[R8]ELDRLL[S5]ELNAVQH-NH2; staple 7-14)",7 µM and 6.95 µM,–,25,–,–
"CC(C)C[C@@H]1NC(=O)[C@H](CCCNC(=N)N)NC(=O)[C@H](CC(=O)O)NC(=O)[C@H](CC(C)C)NC(=O)[C@](C)(NC(=O)[C@H](CO)NC(=O)[C@H](CC(C)C)NC(=O)[C@@H](N)CC(N)=O)CCCCCCC=CCCC[C@@](C)(C(=O)N[C@@H](CC(C)C)C(=O)N[C@@H](CC(N)=O)C(N)=O)NC(=O)[C@H](CC(N)=O)NC(=O)[C@H](CC(C)C)NC1=O [Peptide 1906, H-NLSR8LDRLLNS5LN-NH2] (H-NLS[R8]LDRLLN[S5]LN-NH2; staple 4-11)",> 200 µM,–,> 1250,–,–
"CCCCCCCCCCCCCC(=O)NCCCC[C@@H]1NC(=O)[C@H](CC(=O)O)NC(=O)[C@H](CC(C)C)NC(=O)[C@H](CCC(=O)O)NC(=O)[C@](C)(NC(=O)[C@H](CC(C)C)NC(=O)[C@H](CC(N)=O)NC(C)=O)CCCCCCC=CCCC[C@@](C)(C(=O)N[C@@H](CCC(=O)O)C(=O)N[C@@H](CC(C)C)C(=O)N[C@@H](CC(N)=O)C(N)=O)NC(=O)[C@H](CC(C)C)NC(=O)[C@H](CC(C)C)NC1=O [Peptide 2029, Ac-NLR8ELDK(myristoyl)LLS5ELN-NH2] (Ac-NL[R8]ELDK(Myristoyl)LL[S5]ELN-NH2; staple 3-10)",–,–,–,19.5,–
CC(=O)N[C@@H](CC(N)=O)C(=O)N[C@@H](CC(C)C)C(=O)N[C@@H](CO)C(=O)N[C@@H](CCC(=O)O)C(=O)N[C@@H](CC(C)C)C(=O)N[C@@H](CC(=O)O)C(=O)N[C@@H](CCCNC(=N)N)C(=O)N[C@@]1(C)CCCC=CCCC[C@@](C)(C(=O)N[C@@H](CC(N)=O)C(N)=O)NC(=O)[C@H](CCC(=O)O)NC(=O)[C@H](CC(C)C)NC(=O)[C@H](CC(C)C)NC1=O [Peptide 2015] (Ac-NLSELDR[S5]LLE[S5]N-NH2; staple 8-12),–,did not show much activity compared to 1907,–,47.5,114
"CC(=O)N[C@@H](CC(N)=O)C(=O)N[C@@H](CC(C)C)C(=O)N[C@]1(C)CCCCCCC=CCCC[C@@](C)(C(=O)N[C@@H](CCC(=O)O)C(=O)N[C@@H](CC(C)C)C(=O)N[C@@H](CC(N)=O)C(N)=O)NC(=O)[C@H](Cc2c[nH]c3ccccc23)NC(=O)[C@H](CC(C)C)NC(=O)[C@H](CCCNC(=N)N)NC(=O)[C@H](CC(=O)O)NC(=O)[C@H](CC(C)C)NC(=O)[C@H](CCC(=O)O)NC1=O [Peptide 2007, Ac-NLR8ELDRLWS5ELN-NH2] (Ac-NL[R8]ELDRLW[S5]ELN-NH2; staple 3-10)",73.1 µM,worse binding and inhibitory properties compared to 1907,190,–,–
"CC(=O)N[C@@H](CC(=O)O)C(=O)N[C@@H](CC(C)C)C(=O)N[C@]1(C)CCCCCCC=CCCC[C@@](C)(C(=O)N[C@@H](CCC(=O)O)C(=O)N[C@@H](CC(C)C)C(=O)N[C@@H](CC(=O)O)C(N)=O)NC(=O)[C@H](CC(C)C)NC(=O)[C@H](CC(C)C)NC(=O)[C@H](CCCNC(=N)N)NC(=O)[C@H](CC(=O)O)NC(=O)[C@H](CC(C)C)NC(=O)[C@H](CCC(=O)O)NC1=O [Peptide 1913, Ac-DLR8ELDRLLS5ELD-NH2] (Ac-DL[R8]ELDRLL[S5]ELD-NH2; staple 3-10)",13.7 µM,–,21.8,–,–
"CC(=O)N[C@@H](CC(N)=O)C(=O)N[C@@H](CC(C)C)C(=O)NC(C)(C)C(=O)N[C@@H](CCC(=O)O)C(=O)N[C@@H](CC(C)C)C(=O)N[C@@H](CC(=O)O)C(=O)N[C@@H](CCCNC(=N)N)C(=O)N[C@@H](CC(C)C)C(=O)N[C@@H](CC(C)C)C(=O)NC(C)(C)C(=O)N[C@@H](CCC(=O)O)C(=O)N[C@@H](CC(C)C)C(=O)N[C@@H](CC(N)=O)C(N)=O [Peptide 1912, Ac-NLAibELDRLLAibELN-NH2]",–,lower activity compared to 1907,–,–,–
"CC(=O)N[C@@H](CC(N)=O)C(=O)N[C@]1(C)CCCCCCC=CCCC[C@@](C)(C(=O)N[C@@H](CC(C)C)C(=O)N[C@@H](CCC(=O)O)C(=O)N[C@@H](CC(C)C)C(=O)N[C@@H](CC(N)=O)C(N)=O)NC(=O)[C@H](CC(C)C)NC(=O)[C@H](CCCNC(=N)N)NC(=O)[C@H](CC(=O)O)NC(=O)[C@H](CC(C)C)NC(=O)[C@H](CCC(=O)O)NC(=O)[C@H](CO)NC1=O [Peptide 2017, Ac-NR8SELDRLS5LELN-NH2] (Ac-N[R8]SELDRL[S5]LELN-NH2; staple 2-9)",20.3 µM,limited activity compared to 1907,80.6,–,–
"CC(=O)N[C@@H](CC(N)=O)C(=O)N[C@@H](CC(C)C)C(=O)N[C@]1(C)CCCCCCC=CCCC[C@@](C)(C(=O)N[C@@H](CCC(=O)O)C(=O)N[C@@H](CCC(=O)O)C(=O)N[C@@H](CC(N)=O)C(N)=O)NC(=O)[C@H](CC(C)C)NC(=O)[C@H](CC(C)C)NC(=O)[C@H](CCCNC(=N)N)NC(=O)[C@H](CC(=O)O)NC(=O)[C@H](CCC(=O)O)NC(=O)[C@H](CCC(=O)O)NC1=O [Peptide 2014, Ac-NLR8EEDRLLS5EEN-NH2] (Ac-NL[R8]EEDRLL[S5]EEN-NH2; staple 3-10)",–,completely no binding and inhibitory properties,–,–,–
"CC(=O)N[C@@H](CC(N)=O)C(=O)N[C@@H](CC(C)C)C(=O)N[C@@H](CO)C(=O)N[C@@H](CCC(=O)O)C(=O)N[C@]1(C)CCCCCCC=CCCC[C@@](C)(C(=O)N[C@@H](CC(N)=O)C(N)=O)NC(=O)[C@H](CCC(=O)O)NC(=O)[C@H](CC(C)C)NC(=O)[C@H](CC(C)C)NC(=O)[C@H](CC(C)C)NC(=O)[C@H](CCCNC(=N)N)NC(=O)[C@H](CC(=O)O)NC1=O [Peptide 1914, Ac-NLSER8DRLLLES5N-NH2] (Ac-NLSE[R8]DRLLLE[S5]N-NH2; staple 5-12)",64.3 µM,limited activity compared to 1907,–,–,–
"CC(=O)N[C@@H](CC(N)=O)C(=O)N[C@@H](CC(C)C)C(=O)N[C@@H](CO)C(=O)N[C@]1(C)CCCCCCC=CCCC[C@@](C)(C(=O)N[C@@H](CC(C)C)C(=O)N[C@@H](CC(N)=O)C(N)=O)NC(=O)[C@H](CC(C)C)NC(=O)[C@H](CC(C)C)NC(=O)[C@H](CC(C)C)NC(=O)[C@H](CCCNC(=N)N)NC(=O)[C@H](CC(=O)O)NC(=O)[C@H](CC(C)C)NC1=O [Peptide 1905, Ac-NLSR8LDRLLLS5LN-NH2] (Ac-NLS[R8]LDRLLL[S5]LN-NH2; staple 4-11)",> 200 µM,no binding and inhibitory properties,–,–,–
"CC(=O)N[C@]1(C)CCCCCCC=CCCC[C@@](C)(C(N)=O)NC(=O)[C@H](CC(C)C)NC(=O)[C@H](CC(C)C)NC(=O)[C@H](CCCNC(=N)N)NC(=O)[C@H](CC(=O)O)NC(=O)[C@H](CC(C)C)NC(=O)[C@H](CCC(=O)O)NC1=O [Peptide 2011, Ac-R8ELDRLLS5-NH2] (Ac-[R8]ELDRLL[S5]-NH2; staple 1-8)",–,no binding and inhibitory properties,–,–,–
